Among the data in PubChem BioAssay AID1200 (NMMLSC, 2008) are EC50 values, retold here.

Active and inactive are the calls of the source. How the calls were made is not given here.

This assay concerns prostate cells, cell count (flow cytometry events), cytotoxicity. In words: prostate cell loss as cytotoxicity readout, dose response, cytotoxicity control for prostate cell differentiation activator project, flow cytometry event count (AID 1200). In general terms: A flow cytometer gives signals particle by particle.
With `CCCc1cc(-c2n[nH]c(C)c2-c2ccc(C(=O)OCC)o2)c(O)cc1O`, the EC50 was 3.64 µM (inactive). As for `COc1ccc(Cc2nc(-c3ccc(-n4cccc4)cc3)no2)cc1OC`, the EC50 is 3.01 µM (inactive). For `COc1ccccc1N1CCN(c2nc3ccccc3nc2C(C#N)C(=O)OC(C)C)CC1` (stereo not drawn) the value was 9.78 µM (inactive). In the case of `Cc1oc(-c2ccc(Cl)cc2)nc1CN1CCC(C(=O)N2CCN(Cc3ccccc3)CC2)CC1` it was 3.29 µM; in that of `CCOC(=O)c1ccccc1NC(=O)Cn1c(-c2nonc2N)nc2ccccc21`, 0.137 µM. For `CN1CCN(c2cc3c(c4c2[nH]c2ccccc24)C(=O)CC(C)(C)C3)CC1` the value was 4.6 µM. As for `Cc1ccc(OCC(O)Cn2c(=N)n(CCN3CCCCC3)c3ccccc32)cc1` (stereo not drawn), the EC50 was 3.48 µM. For `CCN(CC)CCNC(=O)c1ccc(N2CCCCC2)c(NS(=O)(=O)c2ccc(C)cc2)c1`, the EC50 was 0.145 µM. For `CCN(CC)CCCNC(=O)c1cc2c(-c3ccc(Cl)cc3)nn(C)c2s1` the value was 2.64 µM; for `COc1ccc(CCn2c(=N)c(C(=O)NCc3ccco3)cc3c(=O)n4ccccc4nc32)cc1`, 10.2 µM (inactive); for `Cc1ccc(C)c(N2CCN(CCCNC(=O)Cn3cc4c(n3)CCCCC4)CC2)c1`, 11.1 µM. For `CN(CC(O)COc1ccc(OCC(O)CN(C)C2CCCCC2)cc1)C1CCCCC1` (stereo not drawn) the value was 0.424 µM. In the case of `CC(C)(C)c1ccc(C(O)CCCN2CCC(C(O)(c3ccccc3)c3ccccc3)CC2)cc1` (stereo not drawn) it was 0.00318 µM (inactive); in that of `CN(C)CCCN1c2ccccc2CCc2ccc(Cl)cc21`, 5.46 µM; in that of `Cc1oc(-c2ccc(Cl)cc2)nc1CN1CCC(C(=O)NCCCN2CCOCC2)CC1`, 17.8 µM (inactive). For the molecule `CCOC(=O)c1c(C)n(C)c2ccc(OCC(O)CNC(CC)CO)cc12` (stereo not drawn), the EC50 was 10.9 µM (inactive). `COc1ccc(Nc2nc(N)nc(CN3CCC(Cc4ccccc4)CC3)n2)cc1`: the EC50 is 2.46 µM.

With `CCN1CCN(c2ncc(C(=O)Nc3cc(Cl)c(OC)cc3OC)c3ccccc23)CC1`, the EC50 is 2.94 µM.

On to `CCCS(=O)(=O)N1CCCC(C(=O)NCCCN2CCN(c3ccc(F)cc3)CC2)C1` (stereo not drawn), for which the EC50 is 0.328 µM (inactive). In the case of `COc1ccc(-c2ccc(-c3noc(-c4ccccc4)n3)c(OC)n2)cc1`, the EC50 is 3.16 µM (inactive).

For `O=C(NCCCN1CCN(c2ccc(F)cc2)CC1)c1cccc(N2CCCC2=O)c1`, the EC50 was 0.441 µM (inactive). In the case of `CCCN(CCC)CCNC(=O)C1CCN(Cc2nc(-c3ccc(Cl)cc3)oc2C)CC1` it was 6.46 µM; in that of `CCCOc1ccccc1C1CC(=O)Nc2cc3c(cc21)OCO3` (stereo not drawn), 0.373 µM (inactive). Turning to `Cc1ccccc1-c1nc(CN2CCC(C(=O)NCCCN3CC(C)CC(C)C3)CC2)c(C)o1` (stereo not drawn), the half-maximal effective concentration (EC50) is 2.11 µM. As to `Cc1cc(N2CCN(C)CC2)nc2ccc(NC(=O)c3ccc(Br)o3)cc12`, the EC50 is 8.72 µM. For `Cc1cc2c(=O)n(CC(=O)N3CCN(c4ccccc4)CC3)cnc2s1` the value was 0.0344 µM (inactive); for `CCN(CC)CCNC(=O)c1cc2c(-c3ccc(Cl)cc3)nn(C)c2s1`, 3.88 µM; for `COc1ccc(CCN2CCC(Nc3nc4ccccc4n3Cc3ccc(F)cc3)CC2)cc1`, 7.83 µM (inactive).

Turning to `CCn1c(=O)cc(SCC(=O)NCCCN2CCN(c3ccccc3F)CC2)c2ccccc21`, the EC50 was 15.6 µM (inactive).

Consider `Cc1ccc(Cl)cc1N1CCN(C(=O)c2cc3c(=O)n(C)c4ccccc4c3n2C)CC1`, for which the EC50 was 0.155 µM. In the case of `CCOc1ccccc1NC(=O)c1nc[nH]c1C(=O)Nc1ccccc1OCC` it was 3.26 µM (inactive); in that of `CCn1c(=O)cc(SCC(=O)NCCN2CCN(Cc3ccccc3)CC2)c2ccccc21`, 14.5 µM (inactive). For `CC1CCCCN1CCNC(=O)c1cc2c(-c3ccccc3F)nn(C)c2s1` (stereo not drawn) the value was 8.61 µM; for `Cc1ccccc1-c1nc(CN2CCC(C(=O)NCc3cccnc3)CC2)c(C)o1`, 1.99 µM; for `COC(=O)c1cc(-c2ccccc2)sc1NC(=O)c1cc(C)on1`, 0.326 µM (inactive). In the case of `COc1ccc(-c2cc(C(F)(F)F)nc(N3CCN(Cc4ccccc4)CC3)n2)cc1OC` it was 9.88 µM (inactive); in that of `COc1ccc2cc3cc(C(=O)Nc4ccccc4N4CCN(C)CC4)oc3nc2c1`, 2.06 µM; in that of `CN(C)c1ccc(CNC2CC(C)(C)NC(C)(C)C2)cc1`, > 30 µM (inactive).

Regarding `CN1CCN(CCCNC(=O)c2cc3c(-c4ccc(Cl)cc4)nn(C)c3s2)CC1`, the EC50 is 4.25 µM. For the molecule `COc1cc2nc(N3CCN(C(=O)C4COc5ccccc5O4)CC3)nc(N)c2cc1OC` (stereo not drawn), the EC50 was 9.6 µM (inactive).

As for `Cn1c(=O)cc(OCC(=O)NCCCN2CCN(c3ccccc3F)CC2)c2ccccc21`, the EC50 was 14 µM (inactive). In the case of `Cc1cccc(-c2nsc(SCC(=O)Nc3nccs3)n2)c1` it was 3.45 µM (inactive); in that of `CCc1ccc(-c2nc(CN3CCC(C(=O)NCc4ccc(F)cc4)CC3)c(C)o2)cc1`, 1.8 µM.

On to `CCN1CCCC1CNC(=O)C1CCN(Cc2nc(-c3cccc(Br)c3)oc2C)CC1` (stereo not drawn), for which the EC50 was 1.14 µM. For `CCN1CCN(C(c2cccs2)C(C)NS(=O)(=O)c2ccc(Br)cc2)CC1` (stereo not drawn) the value was 10.1 µM (inactive).

Regarding `CC1CCCCN1CCNC(=O)c1ccc2c(=O)n(CCc3ccccc3)c(=O)[nH]c2c1` (stereo not drawn), the EC50 is 10.5 µM (inactive).

Regarding `COc1ccc(N2CCN(CCCNC(=O)c3cc4sccc4n3C)CC2)cc1`, the EC50 is 10.1 µM (inactive). In the case of `Cc1ccccc1-c1nc(CN2CCCC(C(=O)NCCCN3CCOCC3)C2)c(C)o1` (stereo not drawn) it was 13.9 µM (inactive); in that of `CN(CCNC(=O)C1CC(=O)N(c2ccc(F)c(Cl)c2)C1)Cc1ccccc1` (stereo not drawn), 27.5 µM (inactive).

Regarding `Cc1ccccc1-c1nc(CN2CCC(C(=O)NCCCN3CCCC3)CC2)c(C)o1`, the EC50 is 0.358 µM (inactive). In the case of `COc1ccc(-c2oc3ncn(CCN4CCOCC4)c(=N)c3c2-c2ccc(OC)cc2)cc1` it was 3.2 µM; in that of `Cc1ccc2c(c1)-c1c(cnn1CC(=O)Nc1ccccc1N1CCN(C)CC1)CO2`, 9.77 µM; in that of `Cn1c(C(=O)NCCCN2CCN(c3cccc(Cl)c3)CC2)cc2c(=O)n(C)c3ccccc3c21`, 5.27 µM.

As for `O=S1(=O)C=C(Sc2nc3ccccc3s2)c2ccccc21`, the EC50 is 0.959 µM. For `Cn1c(=O)cc(SCC(=O)NCCCN2CCN(c3ccccc3F)CC2)c2ccccc21` the value was 1.17 µM. Take `Cn1nc(-c2ccc(Cl)cc2)c2cc(C(=O)NCCCN3CCOCC3)sc21`: the EC50 was 10.1 µM (inactive). As for `CC(C)N1CCC2(CC1)N=C(c1ccc3c(c1)OCO3)CC(c1cc(Cl)ccc1O)N2` (stereo not drawn), the EC50 was 1.86 µM. In the case of `Oc1c(CN2CCCCC2)cc(COCc2ccccc2)c2cccnc12` it was 2.96 µM; in that of `Cn1nc(-c2ccc(Cl)cc2)c2cc(C(=O)NCCCN3CCCC3)sc21`, 4.21 µM; in that of `COc1ccccc1N1CCN(Cc2cc(Br)c(O)c3ncccc23)CC1`, 1.09 µM. Turning to `CCOc1ccc(-c2cc(C(=O)NCCCN3CCN(CC)CC3)c3ccccc3n2)cc1`, the EC50 is 11.1 µM (inactive). In the case of `CCOC(=O)c1c(C)[nH]c(C(=O)COC(=O)C2CC2C)c1C` (stereo not drawn) it was 0.441 µM; in that of `O=C(c1ccccc1)c1ccc(N2CCNCC2)cc1`, > 30 µM (inactive).

By EC50 is commonly meant the concentration needed to bring the measured effect to its halfway point.
